Measurements: patent US12319652B2, “Salts and solid forms of (R)-1-(5-methoxy-1H-indol-1-yl)-N,N-dimethylpropan-2-amine” (priority 2021, dated 2025)

Columns and labels:
[1] = Equilibrium humidity evaluation of crystalline compound 1 HCl Form A (95% RH/20° C.); format: physicochemical
Description: The stability of crystalline compound 1 HCl Form A was evaluated. Absorbent compound 1·Cl (Form A), (100 mg) was maintained, open-capped at 95% RH/20° C. and monitored at t=0, t=5 d and t=10 d, time points.
While absorbent Compound 1 HCl Form A), (100 mg) was placed open-capped inside double, cable-tied, electrostatic polythene bags (to mimic a typical packaging configuration) and placed inside the same humidity chamber at 95% RH at 20° C. and monitored at t=0, t=5 d and t=10 d time points. Stability of compound 1·HCl (Form A) at 40° C./75% RH was examined as part of the salt screen, and was stable over 10 d.

[2] = Qualitative solubility screen of Compound 1 Fumarate in solvents; format: physicochemical
Description: The salt compound also dissolved in refluxing methylisobutyketone (MIBK) at 15 vol concentration. Consistent with Example 1, the solutions formed were cooled and the IPA, 2-MeTHF and MIBK solutions yielded solid material on cooling. The solid product obtained from MIBK was analyzed by XRPD, TG and ^1H NMR—the XRPD diffractogram is provided as FIG. 1 and the ^1H NMR spectrum is provided as FIG. 2.
Compound 1·Fumarate was soluble in many of the common solvents assessed (predominantly Classes 2 and 3 solvents) at 5.0 vol (200 mg/ml), 10.0 vol, 15.0 vol and 20.0 vol (refer to Table). Solids were isolated on cooling from isopropanol (IPA, 5.0 vol), 2-MeTHF (5.0 vol) and methylisobutylketone (MIBK, 15.0 vol). The products from IPA and 2-MeTHF were gums, and not pursued further.
Compound 1 Fumarate (batch 1, 25 mg, 1 wt) was weighed out in 20 separate vials to qualitatively examine the solubility in an array of diverse solvents. […] If insoluble at 5 vol, the solvent quantity was increased to 10 vol, 15 vol and 20 vol of the respective solvent. The suspensions that occurred upon cooling down were centrifuged and the solvent wet pellets were analysed by XRPD. The insoluble suspensions were additionally worked up for XRPD analysis. The resultant powder patterns were subsequently cross-referenced against the input supplied material.

[3] = t = 10 d, open-capped vial inside double bags at 95% RH/20 (Table 111)
[4] = t = 10 d, open-capped vial inside double bags at 95% RH/20 (Table 112)

Compound: COc1ccc2c(ccn2C[C@@H](C)N(C)C)c1.Cl [Compound 1 HCl]
- HPLC purity data, peak RT 11.41, RRT 0.94 ([1]; t = 0, Table 111): 0.07
- HPLC purity data, peak RT 12.41, RRT 1.00 (main peak) ([1]; t = 0, Table 111): 99.65
- HPLC purity data, peak RT 14.32, RRT 1.18 ([1]; t = 0, Table 111): 0.03
- HPLC purity data, peak RT 15.05, RRT 1.24 ([1]; t = 0, Table 111): 0.05
- HPLC purity data, peak RT 15.41, RRT 1.27 ([1]; t = 0, Table 111): 0.07
- HPLC purity data, peak RT 15.78, RRT 1.30 ([1]; t = 0, Table 111): 0.04
- HPLC purity data, peak RT 16,50, RRT 1.36 ([1]; t = 0, Table 111): 0.08
- HPLC purity data, peak RT 11.41, RRT 0.94 ([1]; t = 0, Table 112): 0.07
- HPLC purity data, peak RT 12.01, RRT 0.99 ([1]; t = 0, Table 112): 0.02
- HPLC purity data, peak RT 12.14, RRT 1.00 (main peak) ([1]; t = 0, Table 112): 99.65
- HPLC purity data, peak RT 14.32, RRT 1.18 ([1]; t = 0, Table 112): 0.03
- HPLC purity data, peak RT 15.05, RRT 1.24 ([1]; t = 0, Table 112): 0.05
- HPLC purity data, peak RT 15.41, RRT 1.27 ([1]; t = 0, Table 112): 0.07
- HPLC purity data, peak RT 15.78, RRT 1.30 ([1]; t = 0, Table 112): 0.04
- HPLC purity data, peak RT 16.50, RRT 1.36 ([1]; t = 0, Table 112): 0.08
- HPLC purity data, peak RT 11.29, RRT 0.93 [1, 3]: 0.06
- HPLC purity data, peak RT 11.41, RRT 0.94 [1, 3]: 0.02
- HPLC purity data, peak RT 12.41, RRT 1.00 (main peak) [1, 3]: 99.79
- HPLC purity data, peak RT 14.32, RRT 1.18 [1, 3]: 0.03
- HPLC purity data, peak RT 15.05, RRT 1.24 [1, 3]: 0.04
- HPLC purity data, peak RT 15.41, RRT 1.27 [1, 3]: 0.02
- HPLC purity data, peak RT 11.41, RRT 0.94 [1, 4]: 0.06
- HPLC purity data, peak RT 12.01, RRT 0.99 [1, 4]: 0.02
- HPLC purity data, peak RT 12.14, RRT 1.00 (main peak) [1, 4]: 99.78
- HPLC purity data, peak RT 14.32, RRT 1.18 [1, 4]: 0.03
- HPLC purity data, peak RT 14.68, RRT 1.21 [1, 4]: 0.03
- HPLC purity data, peak RT 15.05, RRT 1.24 [1, 4]: 0.05
- HPLC purity data, peak RT 15.41, RRT 1.27 [1, 4]: 0.01
- HPLC purity data, peak RT 15.78, RRT 1.30 [1, 4]: 0.02

Compound: COc1ccc2c(ccn2C[C@@H](C)[NH+](C)C)c1.O=C(O)/C=C/C(=O)O [Compound 1 fumarate, (R)-1-(5-methoxy-1H-indol-1-yl)-N,N-dimethylpropan-2-amine fumarate]
- Solid on cooling ([2]; 2-MeTHF, 5 vol): Yes
- Solution at reflux ([2]; 2-MeTHF, 5 vol (200 mg/ml), fumarate): ✓
- Solution at reflux ([2]; 2-MeTHF, 5 vol (200 mg/ml), listed as fumarate salt, fumarate): soluble
- Solution at 20° C. ([2]; Acetone, 5 vol (200 mg/ml), fumarate): ✓
- Solution at 20° C. ([2]; Acetone, 5 vol (200 mg/ml), listed as fumarate salt, fumarate): soluble
- Solution at 20° C. ([2]; Butanol, 5 vol (200 mg/ml), fumarate): ✓
- Solution at 20° C. ([2]; Butanol, 5 vol (200 mg/ml), listed as fumarate salt, fumarate): soluble
- Solution at 20° C. ([2]; DCM, 5 vol (200 mg/ml), fumarate): ✓
- Solution at 20° C. ([2]; DCM, 5 vol (200 mg/ml), listed as fumarate salt, fumarate): soluble
- Solid on cooling ([2]; Dioxane, 5 vol): No
- Solution at 40° C. ([2]; Dioxane, 5 vol (200 mg/ml), fumarate): ✓
- Solution at 40° C. ([2]; Dioxane, 5 vol (200 mg/ml), listed as fumarate salt, fumarate): soluble
- Solution at 20° C. ([2]; Ethanol, 5 vol (200 mg/ml), fumarate): ✓
- Solution at 20° C. ([2]; Ethanol, 5 vol (200 mg/ml), listed as fumarate salt, fumarate): soluble
- Solid on cooling ([2]; IPA, 5 vol): Yes
- Solution at 40° C. ([2]; IPA, 5 vol (200 mg/ml), fumarate): ✓
- Solution at 40° C. ([2]; IPA, 5 vol (200 mg/ml), listed as fumarate salt, fumarate): soluble
- Solution at 20° C. ([2]; MEK, 5 vol (200 mg/ml), fumarate): ✓
- Solution at 20° C. ([2]; MEK, 5 vol (200 mg/ml), listed as fumarate salt, fumarate): soluble
- Solid on cooling ([2]; MIBK, 10, 15 & 20 vol): Yes
- Solution at reflux ([2]; MIBK, 10, 15 & 20 vol): ✓
- Dissolution in refluxing methylisobutyketone (MIBK) ([2]; MIBK, reflux, 15 vol concentration): dissolved
- Solution at 20° C. ([2]; MeCN, 5 vol (200 mg/ml), fumarate): ✓
- Solution at 20° C. ([2]; MeCN, 5 vol (200 mg/ml), listed as fumarate salt, fumarate): soluble
- Solution at 20° C. ([2]; Methanol, 5 vol (200 mg/ml), fumarate): ✓
- Solution at 20° C. ([2]; Methanol, 5 vol (200 mg/ml), listed as fumarate salt, fumarate): soluble
- Solution at 20° C. ([2]; THF, 5 vol (200 mg/ml), fumarate): ✓
- Solution at 20° C. ([2]; THF, 5 vol (200 mg/ml), listed as fumarate salt, fumarate): soluble
- Solution at 20° C. ([2]; Water, 5 vol (200 mg/ml), fumarate): ✓
- Solution at 20° C. ([2]; Water, 5 vol (200 mg/ml), listed as fumarate salt, fumarate): soluble
